These are literature values, as cited in US8546585B2, “Process for preparing eprosartan mesylate” (Zhejiang Huahai Pharmaceutical Co., Ltd., priority 2008, dated 2013).

Assay in data set [1]: not given
This is another data set of the same source.

The conditions of data set [2]: mild, moderate and severe hypertensive patients.
Where [3] appears, read: patients with liver and kidney dysfunction, or fullness after administration.

Where a name gives a salt, the structure may show the parent alone.

Take `CCCCc1ncc(/C=C(\Cc2cccs2)C(=O)O)n1Cc1ccc(C(=O)O)cc1` [Eprosartan mesylate]: the absorption entry (administrated orally) was “rapidly absorbed”. In addition, under setting [3], the “AUC (Area Under Curve) elevated by” value was “about 50%” and the “blood peak concentration elevated by” value is on record as “about 50%”. Moreover, the protein binding rate in data set [1] was 98%. Besides, in data set [2], the “lowering of systolic and diastolic pressures” value is “potent to lower systolic and diastolic pressures”; the safety and tolerability result was “safe and tolerable”.
